{"source": "patent US12128019B1", "about": "“Nanocomposite including abscisic acid-loaded collagen nanoparticles” (KING FAISAL UNIVERSITY, priority 2023, dated 2024)", "key": {"NHSF cell line": {"test_system": "NHSF cell line", "test": "In vitro cytotoxicity and cell viability, optical microscope", "assay_type": "cell-based", "method": "On the NHSF cell line, the cytotoxic effect of ABA alone and collagen nanoparticles loaded with ABA was investigated with serial double-fold dilutions at an initial dose of 50 μMABA. ABA loaded with collagen nanoparticles was dissolved in ethanol, 0.0264 g/mL stock solutions, which were then serially diluted in a complete growth medium to make the different concentrations used in cytotoxicity assays. The cytotoxicity of each drug against the NHSF cell line was determined using an optical microscope. After a 24-hour incubation period at 37° C., exponentially developing cells were seeded in 96-well flat-bottomed microplates and subjected to drug doses for […].\nAfter exposure of the NHSF cell line to each experimental drug, the reactions were allowed to proceed in an incubator (37° C./5% CO2/95% humidity) for 24 hours and 72 hours of time. Cell viability was recorded through an optical microscope, which is one of the methods generally used to detect cell proliferation or toxicity.\nAfter 24 hours, cell growth rates in different types of ABA and “Marine Collagen Nanoparticles (MCNPs) with ABA were observed under an optical microscope. Cells were also cultured in media containing ethanol in an incubator (37° C./5% CO2/95% humidity) and then observed under an optical microscope."}, "[1]": {"test_system": "adrenaline-induced myocardial infarction (MI)", "test": "Electrocardiogram and haemodynamic assessment in adrenaline-induced MI rats", "assay_type": "in vivo", "details": "for ECG finding: MI rats, FIGS. 3A-3E; for COP (mean) / HR (mean) / RR (interval) / ST height / carotid flow mean: rats, adrenaline 2 mg/kg s.c. on 2 consecutive days, treatment for one week", "method": "(§1) Four groups of rats were injected with adrenaline (2 mg/kg, s.c.) as a single dose for 2 consecutive days (24 h apart) to induce myocardial infarction (MI) while an additional rat group was used as control. Treatment of the rat groups is set forth below.\n(§2) Group 1: (Control negative group): rats were injected intraperitoneally (i.p.) with physiological saline 0.2 ml/day for one week.\n(§3) Group 2 (MI group): rats were injected with adrenaline (2 mg/kg, s.c.) as a single dose for 2 consecutive days (24 h apart) to induce MI.\n(§4) Group 3 (MI+ABA carrying on collagen nanoparticle): rats were injected with adrenaline (2 mg/kg, s.c.) as a single dose for 2 consecutive days (24 h apart) to induce MI and ABA-loaded collagen nanoparticle were administered with adrenaline by oral gavage for one week 1 mg/kg/day of.\n(§5) Group 4 (MI+Trimetazidine): rats were injected with adrenaline (2 mg/kg, s.c.) as a single dose for 2 consecutive days (24 h apart) to induce MI and Trimetazidine (Sigma, USA) was administered intraperitoneally with adrenaline at 10 mg/kg/day for one week. Trimetazidine was injected intraperitoneally in the low-dose group (10 mg/kg).\n(§6) Group 5 (MI+Collagen nanoparticle) group: rats were injected with adrenaline (2 mg/kg, s.c.) as a single dose for 2 consecutive days (24 h apart) to induce MI Collagen nanoparticle was administered along with adrenaline by oral gavage for one week at 1 mg/kg/day.\n(§7) Group 6 (MI+ABA carrying on collagen nanoparticle+Trimetazidine) group: rats were injected with adrenaline (2 mg/kg, s.c.) as a single dose for 2 consecutive days (24 h apart) to induce MI, and ABA-loaded collagen nanoparticle were administered (1 mg/kg/day) by oral gavage and 10 mg/kg/day with Trimetazidine administered intraperitoneally (i.p.) along with adrenaline for one week."}, "[2]": {"test_system": "cardiac enzymes; troponin, LDH, and CK", "test": "Biological cardiac markers in serum, MI rats", "assay_type": "in vivo", "details": "for Cardiac enzyme levels: serum troponin, LDH, CK", "method": "as §1, §2, §3, §4, §5, §6, §7"}, "[3]": {"test": "Body and heart weight of experimental rats", "assay_type": "in vivo", "details": "MI rats, treatment for one week", "method": "as §1, §2, §3, §4, §5\nGroup 5 (MI+Collagen nanoparticle) group: rats were injected with adrenaline (2 mg/kg, s.c.) as a single dose for 2 consecutive days (24 h apart) to induce MI Collagen nanoparticle was administered along with adrenaline by oral gavage for one week at 1 mg/kg/day. […]"}, "[4]": {"test_system": "oxidative stress markers and antioxidant enzymes", "test": "Oxidative stress markers and antioxidant enzymes, cardiac contents, MI rats", "assay_type": "in vivo", "details": "treatment for one week", "method": "as §1, §2, §3, §4, §5, §6, §7\nAll treatment drugs improved the marker levels. NO level increased due to adrenaline administration because the role of NO in cardiovascular diseases is complex and controversial."}}, "note": "Marks after values point to notes of the source that are not given here.", "data": [{"smiles": "CC1=CC(=O)CC(C)(C)[C@@]1(O)/C=C/C(C)=C\\C(=O)O", "note": "[ABA, abscisic acid]", "values": [{"measurement": "cell proliferation", "setting": "NHSF cell line; HSFs culture, after 72 hours", "result": "marked increase of proliferation"}, {"measurement": "cell morphology", "setting": "NHSF cell line; NHSF cell line, after 24 hours", "result": "normal morphology of branch- and spindle-shapes"}]}, {"smiles": "CC1=CC(=O)CC(C)(C)C1(O)/C=C/C(C)=C\\C(=O)O", "note": "(centres unmarked) [Extracted ABA, abscisic acid]", "values": [{"measurement": "ECG finding", "setting": "[1]", "result": "still showed pathological changes but with the ST segment nearer to the isoelectric line"}, {"measurement": "elevation of COP", "setting": "[1]; compared to the MI group", "result": 73, "unit": "%"}, {"measurement": "elevation of SV", "setting": "[1]; compared to the MI group", "result": 93, "unit": "%"}, {"measurement": "elevation of carotid blood flow", "setting": "[1]; compared to the MI group", "result": 70, "unit": "%"}, {"measurement": "COP (mean)", "setting": "[1]", "result": "18.57 ± 1.0^b ml/min"}, {"measurement": "HR (mean)", "setting": "[1]", "result": "247.4 ± 9.69^cd b/min"}, {"measurement": "RR (interval)", "setting": "[1]", "result": "0.73 ± 0.03^b sec"}, {"measurement": "ST height", "setting": "[1]", "result": "42.98 ± 4.05^b mm"}, {"measurement": "carotid flow mean", "setting": "[1]", "result": "18.06 ± 1.15^b ml/min"}, {"measurement": "Cardiac enzyme levels", "setting": "[2]", "result": "decreased toward normal"}]}, {"smiles": "CC1=CC(=O)CC(C)(C)[C@@]1(O)/C=C/C(C)=C\\C(=O)O", "note": "[Standard ABA, abscisic acid]", "values": [{"measurement": "ECG finding", "setting": "[1]", "result": "still showed pathological changes but with the ST segment nearer to the isoelectric line"}, {"measurement": "elevation of COP", "setting": "[1]; compared to the MI group", "result": 63, "unit": "%"}, {"measurement": "elevation of SV", "setting": "[1]; compared to the MI group", "result": 73, "unit": "%"}, {"measurement": "elevation of carotid blood flow", "setting": "[1]; compared to the MI group", "result": 63, "unit": "%"}, {"measurement": "COP (mean)", "setting": "[1]", "result": "17.52 ± 0.1^b ml/min"}, {"measurement": "HR (mean)", "setting": "[1]", "result": "255.77 ± 1.23^c b/min"}, {"measurement": "RR (interval)", "setting": "[1]", "result": "0.7 ± 0.003^c sec"}, {"measurement": "ST height", "setting": "[1]", "result": "39.33 ± 2.15^b mm"}, {"measurement": "carotid flow mean", "setting": "[1]", "result": "17.4 ± 0.16^b ml/min"}, {"measurement": "Cardiac enzyme levels", "setting": "[2]", "result": "decreased toward normal"}]}, {"smiles": "COc1ccc(CN2CCNCC2)c(OC)c1OC", "note": "[Trimetazidine]", "values": [{"measurement": "ECG finding", "setting": "[1]", "result": "almost normal electrocardiogramith little to no elevation in the ST-segment"}, {"measurement": "decrease in the ST segment elevation", "setting": "[1]; compared to the MI group", "result": "~46", "unit": "%"}, {"measurement": "COP (mean)", "setting": "[1]", "result": "23.9 ± 0.07^a ml/min"}, {"measurement": "HR (mean)", "setting": "[1]", "result": "254.17 ± 1.89^c b/min"}, {"measurement": "RR (interval)", "setting": "[1]", "result": "0.75 ± 0.02^a sec"}, {"measurement": "ST height", "setting": "[1]", "result": "27.55 ± 0.49^c mm"}, {"measurement": "carotid flow mean", "setting": "[1]", "result": "23.75 ± 0.05^a ml/min"}, {"measurement": "Bwt", "setting": "[3]; body weight", "result": "188 ± 1.22^bcd"}, {"measurement": "Hwt", "setting": "[3]; heart weight", "result": "1.39 ± 0.03^cd"}, {"measurement": "Catalase", "setting": "[4]; cardiac contents", "result": "132.5 ± 36.08^ab U/g protein"}, {"measurement": "GSH", "setting": "[4]; cardiac contents", "result": "19.59 ± 2.28ª μmol/g protein"}, {"measurement": "MDA", "setting": "[4]; cardiac contents", "result": "4.4 ± 0.26^cde μmol/g protein"}, {"measurement": "NO", "setting": "[4]", "result": "52.22 ± 0^bc μM/g protein"}, {"measurement": "CK-MB", "setting": "[2]; serum, treatment for one week", "result": "1.13 ± 0.02^bc U/L"}, {"measurement": "LDH", "setting": "[2]; serum, treatment for one week", "result": "246.67 ± 12.47^d U/L"}, {"measurement": "Troponin", "setting": "[2]; serum, treatment for one week", "result": "1.34 ± 0.03^d ng/ml"}]}]}
